Experiments:
WT TRPV1 = molecular target: T1, WT TRPV1 (Rattus norvegicus, UniProt O35433); assay: Two-electrode voltage-clamp in Xenopus oocytes, WT TRPV1; assay type: cell-based
T1 construct: expressed in transfected cells; host or cells: Xenopus oocytes (cRNA injection, pGEM-HE)
Source text: (§1) To further investigate the putative vanilloid binding pocket in TRPV1, we inspected the cryo-EM structure of TRPV1, looking for residues that are located nearby to the putative RTx density (Figure 1B; regions/residues highlighted in yellow) and that differ between TRPV1 and TRPV2 channels (Figure 3—figure supplement 1; regions highlighted in magenta). […] To quantify the contribution of each of these residues to TRPV1 channel activation by RTx under our experimental conditions, we mutated each to the corresponding residue in TRPV2. We then expressed each construct in oocytes and used the two electrode voltage-clamp technique to study activation by RTx and by the non-specific TRPV channel activator 2-APB. We recorded time courses for channel activation by each agonist while stepping the membrane potential from −60 to +60 mV every 3 s from a holding potential of 0 mV using an external recording solution containing 100 mM KCl (internal K^+ concentration in a healthy oocyte is 100 mM) (Figure 3A, left). We also recorded current-voltage (I-V) relations by stepping over a wider range of voltages in the absence and presence of activators, or in the presence of ruthenium red (RR), a non-specific inhibitor of TRP channels (Figure 3A, right).
The WT rat TRPV1 and TRPV2 channels in the pcDNA3.1 vector were kindly provided by Dr. David Julius (UCSF) ([Caterina et al., 1997]; [Caterina et al., 1999]) and subcloned into the pGEM-HE vector ([Liman et al., 1992]). Mutations were introduced into rTRPV1 using a two-step PCR mutagenesis technique and the resulting constructs were verified by sequencing. All channel constructs were expressed in Xenopus oocytes and studied following 1–4 days incubation after cRNA injection (incubated at 17°C in 96 mM NaCl, 2 mM KCl, 5 mM HEPES, 1 mM MgCl2 and 1.8 mM CaCl2, 50 μg/ml gentamycin, pH 7.6 with NaOH) using the two-electrode voltage-clamp recording technique (OC-725C, Warner Instruments, Hamden, CT) with a 150 μl recording chamber. Data were filtered at 1–3 kHz and digitized at 20 kHz using pClamp software (Molecular Devices, Sunnyvale, CA). […]

[1] = molecular target: T2, TRPV1 QM (S512F, M547L, T550L, E570Q) (Rattus norvegicus, UniProt O35433, E570Q/M547L/S512F/T550L); assay: Two-electrode voltage-clamp in Xenopus oocytes, TRPV1 QM; assay type: cell-based; conditions: 2 mM 2-APB
T2 construct: expressed in transfected cells; host or cells: Xenopus oocytes (cRNA injection)
Source text: as §1, with “right). […]” for “right).”

WT TRPV2 = molecular target: T3, WT TRPV2 (Rattus norvegicus, UniProt Q9WUD2); assay: Two-electrode voltage-clamp in Xenopus oocytes, WT TRPV2; assay type: cell-based; conditions: 4 mM 2-APB
T3 construct: expressed in transfected cells; host or cells: Xenopus oocytes (cRNA injection, pGEM-HE)
Source text: as §1, with “right). […]” for “right).”

TRPV2 = test system: TRPV2; set-up: method as in Caterina et al., 1999; conditions: ref Caterina et al., 1999; cited from earlier work
TRPV2 QM = molecular target: T4, TRPV2 QM (Rattus norvegicus, UniProt Q9WUD2, F472S/L507M/L510T/Q530E); assay: Two-electrode voltage-clamp in Xenopus oocytes, TRPV2 QM; assay type: cell-based; conditions: 50 µM capsaicin
T4 construct: expressed in transfected cells; host or cells: Xenopus oocytes (cRNA injection)
T4 sequence (Q9WUD2 1-761 F472S/L507M/L510T/Q530E): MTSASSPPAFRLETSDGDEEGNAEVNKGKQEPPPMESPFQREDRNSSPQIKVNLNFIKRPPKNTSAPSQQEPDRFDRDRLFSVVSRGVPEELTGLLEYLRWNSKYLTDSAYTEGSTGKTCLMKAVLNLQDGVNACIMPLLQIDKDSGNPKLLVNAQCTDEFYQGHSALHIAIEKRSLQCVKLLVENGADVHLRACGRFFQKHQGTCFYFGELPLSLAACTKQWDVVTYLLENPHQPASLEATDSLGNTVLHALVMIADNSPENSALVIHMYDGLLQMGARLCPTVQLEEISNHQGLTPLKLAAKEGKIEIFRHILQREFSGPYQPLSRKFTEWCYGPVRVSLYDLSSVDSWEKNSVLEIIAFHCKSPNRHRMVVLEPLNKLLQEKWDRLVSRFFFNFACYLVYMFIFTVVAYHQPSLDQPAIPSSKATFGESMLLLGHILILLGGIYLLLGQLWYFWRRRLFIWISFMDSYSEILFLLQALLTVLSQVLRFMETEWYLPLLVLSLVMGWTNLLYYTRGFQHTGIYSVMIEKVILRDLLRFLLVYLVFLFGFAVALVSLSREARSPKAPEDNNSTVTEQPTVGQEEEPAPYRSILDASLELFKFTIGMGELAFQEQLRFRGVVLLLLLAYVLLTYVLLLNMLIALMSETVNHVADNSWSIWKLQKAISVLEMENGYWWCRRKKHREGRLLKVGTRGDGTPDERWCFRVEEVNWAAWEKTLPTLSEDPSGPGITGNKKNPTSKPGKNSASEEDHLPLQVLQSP
Source text: as §1, with “right). […]” for “right).”

[2] = test system: full-length 1D4-tagged TRPV1; assay: 3H-RTx binding to S. cerevisiae membranes containing 1D4-tagged TRPV1; set-up: species or system rat; conditions: membranes, RTx binding in the presence of DkTx vs control
Source text: The polymodal activation of TRPV1 has been widely conceptualized using allosteric models wherein binding of activators (such as vanilloids, protons, DkTx or voltage) are allosterically coupled to opening of the pore ([Brauchi et al., 2004]; [Jara-Oseguera et al., 2016]; [Matta and Ahern, 2007]). The allosteric nature of these interactions has begun to be explored using electrophysiological measurements of channel function ([Jara-Oseguera et al., 2016]; [Yao et al., 2010]), but has thus far not been investigated biochemically. We therefore tested whether binding of DkTx can enhance the affinity of TRPV1 for RTx, which would be predicted by an allosteric model wherein the two activators promote opening by binding more tightly to the open state. For these experiments we used a 1D4-tagged TRPV1 construct where expression in S. cerevisiae was driven by a constitutive promoter and we performed binding assays on yeast membranes where the vanilloid would have free access to the channel protein (see Methods). Under these conditions, we measured a Kd for RTx binding to 1D4-tagged TRPV1 of 0.6 nM under control conditions, about ten fold higher affinity than what we measured in intact cells using GFP-tagged TRPV1. When we measured the concentration-dependence of RTx binding to 1D4-tagged TRPV1 in the presence of DkTx, we observed that the tarantula toxin enhanced the affinity for RTx by about 3-fold (Figure 2A). The effects of DkTx were concentration-dependent (Figure 2B) and were observed independent of whether the binding assay was performed at 37°C (our standard temperature) or at 30°C (Figure 2A).
The full-length TRPV1 and TRPV2 channels with 1D4 affinity tags (TETSQVAPA) on their C-termini were cloned into the YEpHIS vector and expressed in the BJ5457 strain of S. cerevisiae using the strong constitutively active PMA1 promoter, as previously described ([Moiseenkova-Bell et al., 2008]). After 48 hr of expression at 30°C in YPD media, cells were harvested by centrifugation and re-suspended in PBS buffer, supplemented with complete protease inhibitor cocktail (Roche, Indianapolis, IN) and 4-amidinophenylmethanesulfonyl fluoride hydrochloride (APMSF) (Sigma-Aldrich, St. Louis, MO). Cells were broken by passing through an Avestin homogenizer at the pressure of 35 kpsi, cell lysate was cleared by centrifugation at 8,000 g for 15 min and membranes were isolated by ultracentrifugation at 190,000 g for 1 hr. Membrane pellets were re-suspended in PBS buffer supplemented with protease inhibitors and 200 mM sucrose, flash-frozen in liquid nitrogen and stored at -70°C until RTx binding measurements.
S. cerevisiae cells overexpressing TRPV1 constructs to be used in ligand binding assays on intact cells (Figure 1E,F) were grown as for small scale expression trials. 24 hr after protein induction cells were spun down at 4000g, the supernatant was removed and the pellet resuspended in 1x PBS, normalizing OD600 to 75 for each sample, and aliquoted for storage at -80°C. ^3H-RTx binding assays on cells were performed at 37°C as previously described ([Feng et al., 2015]), but where non-specific binding of RTx was measured using cells expressing GFP alone. The binding of RTx to TRPV1 and TRPV2 in membranes (e.g. Figure 2A,B and 5C) was performed at 37°C unless otherwise stated using membranes prepared from large scale protein preparations of S. cerevisiae containing rat TRPV1 and TRPV2 with a 1D4 tag expressed using a constitutive promoter as in [Moiseenkova-Bell et al., 2008]. Data for binding of RTx to membranes was corrected for non-specific binding, determined using either excess non-radioactive ligand or heat inactivation of the protein, as previously described ([Feng et al., 2015]). The TRPV1-activating double-knot toxin (DkTx) was produced recombinantly, folded in vitro and purified as previously described ([Bae et al., 2012]). Yeast membranes were incubated with DkTx solution for 1 hr at 4°C with gentle agitation prior to undertaking RTx binding assays. […]

T1 sequence (O35433 whole entry): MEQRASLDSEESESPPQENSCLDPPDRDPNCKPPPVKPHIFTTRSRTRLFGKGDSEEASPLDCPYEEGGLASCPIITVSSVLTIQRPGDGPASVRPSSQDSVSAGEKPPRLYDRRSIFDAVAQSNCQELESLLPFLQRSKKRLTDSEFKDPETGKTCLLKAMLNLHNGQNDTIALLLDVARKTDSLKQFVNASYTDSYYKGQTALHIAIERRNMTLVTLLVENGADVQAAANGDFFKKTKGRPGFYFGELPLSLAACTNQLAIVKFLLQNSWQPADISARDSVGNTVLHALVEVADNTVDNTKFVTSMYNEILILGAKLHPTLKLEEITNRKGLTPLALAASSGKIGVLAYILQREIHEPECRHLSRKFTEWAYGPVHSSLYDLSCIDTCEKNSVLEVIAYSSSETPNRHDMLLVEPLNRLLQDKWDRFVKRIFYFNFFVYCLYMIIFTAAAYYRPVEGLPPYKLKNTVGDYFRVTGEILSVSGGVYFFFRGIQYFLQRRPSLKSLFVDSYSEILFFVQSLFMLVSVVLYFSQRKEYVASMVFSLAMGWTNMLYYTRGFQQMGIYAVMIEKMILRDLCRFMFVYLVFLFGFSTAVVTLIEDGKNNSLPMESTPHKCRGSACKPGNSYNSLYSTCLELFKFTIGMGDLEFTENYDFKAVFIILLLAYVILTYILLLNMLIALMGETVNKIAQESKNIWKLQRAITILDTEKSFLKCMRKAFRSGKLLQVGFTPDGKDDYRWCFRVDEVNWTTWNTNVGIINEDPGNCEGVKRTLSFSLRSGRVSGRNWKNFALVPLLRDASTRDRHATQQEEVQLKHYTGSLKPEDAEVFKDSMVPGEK
T2 sequence (O35433 whole entry S512F/M547L/T550L/E570Q): as the sequence (O35433 whole entry) above, with S512F, M547L, T550L, E570Q counted along it
T3 sequence (Q9WUD2 whole entry): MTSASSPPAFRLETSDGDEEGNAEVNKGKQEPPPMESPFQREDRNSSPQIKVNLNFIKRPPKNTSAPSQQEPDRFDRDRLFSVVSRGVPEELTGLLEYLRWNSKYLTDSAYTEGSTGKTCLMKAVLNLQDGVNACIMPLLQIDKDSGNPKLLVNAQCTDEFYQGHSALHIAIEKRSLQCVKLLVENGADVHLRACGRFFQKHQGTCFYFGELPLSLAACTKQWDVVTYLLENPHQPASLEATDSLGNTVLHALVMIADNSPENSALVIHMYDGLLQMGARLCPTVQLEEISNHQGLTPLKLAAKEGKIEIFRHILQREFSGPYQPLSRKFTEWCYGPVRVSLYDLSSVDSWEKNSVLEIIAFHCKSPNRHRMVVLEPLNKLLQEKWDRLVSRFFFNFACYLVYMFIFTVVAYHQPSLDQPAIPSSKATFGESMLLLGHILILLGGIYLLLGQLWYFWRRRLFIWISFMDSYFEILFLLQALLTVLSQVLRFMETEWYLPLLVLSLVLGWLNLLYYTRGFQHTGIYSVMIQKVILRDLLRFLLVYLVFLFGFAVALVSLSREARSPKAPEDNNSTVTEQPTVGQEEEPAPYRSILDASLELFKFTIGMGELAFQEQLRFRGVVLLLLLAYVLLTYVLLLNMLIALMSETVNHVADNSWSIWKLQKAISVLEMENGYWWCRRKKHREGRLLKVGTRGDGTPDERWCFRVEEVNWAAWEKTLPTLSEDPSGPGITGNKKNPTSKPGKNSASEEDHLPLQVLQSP

N.N.N.N.N.N.N.N.N.N.N.N.N.N.[Cl-].[Cl-].[Cl-].[Cl-].[Cl-].[Cl-].[O-2].[O-2].[Ru+3].[Ru+3].[Ru+4] [RR, ruthenium red]
inhibition of RTx-activated currents by RR (WT TRPV1; 50 µM RR after 100 nM RTx): blocked the RTx-activated currents

NCCOB(c1ccccc1)c1ccccc1 [2-APB, 2-aminoethoxydiphenyl borate]
channel activation by 2-APB [1]: retaining sensitivity | channel activation by 2-APB (WT TRPV2): could be activated | channel activation by 2-APB (WT TRPV1; 2 mM 2-APB, +60 and -60 mV): reversible activation

COc1cc(CNC(=O)CCCC/C=C/C(C)C)ccc1O [capsaicin]
sensitivity to capsaicin (TRPV2): insensitive to capsaicin | channel activation by capsaicin (TRPV2 QM): remained insensitive

B1: double-knot toxin (protein, UniProt P0CH43 1-79, looked up)
Tau-theraphotoxin-Hs1a: DCAKEGEVCSWGKKCCDLDNFYCPMEFIPHCKKYKPYVPVTTNCAKEGEVCGWGSKCCHGLDCPLAFIPYCEKYRGRND
enhancement of the affinity for RTx by DkTx [2]: about 3 fold
